Results reported in PubChem BioAssay AID2060602 (Molecular Pharmacology Branch, DTP, NCI, 2025).
Where “and” joins values, the source holds several entries; their conditions need not be identical. Equal values may be shown once.

System: 648629-189-R-J1-PDC complex spheroids viability
Experiment: Anticancer human tumor 648629-189-R-J1-PDC patient-derived bladder carcinoma cell line growth inhibition [CLK]
Settings: for viability, T/C: stronger effect = lower value
Text: A high-throughput screen of multi-cell type tumor spheroids was designed to identify active combinations of […] and targeted small molecules. Complex spheroids include a stromal component modeled by human endothelial cells (HUVEC) and fibroblasts modeled by human mesenchymal stem cells (MSCs). The concentration ranges selected for each drug and investigational agent were based upon clinically achievable concentrations if the clinical Cmax of the agent was known.
Compounds. The drugs and investigational agents: cirtuvivint (SM08502; NSC835563), CC-671 (NSC850746), vemurafenib (NSC761431), tapotoclax (NSC804041), sotorasib (NSC818433), adagrasib (NSC831453), MRTX-1133 (NSC836407), BAY2416964 (NSC825713), copanlisib (NSC816437), inavolisib (NSC800729), abemaciclib (NSC768073), osimertinib (NSC779217), entinostat (NSC756642), eltanexor (KPT-8602, NSC794443), venetoclax (NSC766270), ceralasertib (NSC777638), bortezomib (NSC756655), olaparib (NSC753686), talazoparib (NSC767125), alisertib (NSC759677), peposertib (NSC802822), gemcitabine (NSC613327), 5-fluorouracil (NSC19893), SN-38 (NSC673596), oxaliplatin (NSC266046), paclitaxel (NSC125973), and doxorubicin (NSC123127), were obtained from the National Cancer Institute (NCI) Developmental Therapeutics Program Chemical Repository. The FDA-approved anticancer drug set is available from the Developmental Therapeutics Program at https://dtp.cancer.gov/organization/dscb/obtaining/available plates.htm. […] The stock solutions were prepared in dimethyl sulfoxide (DMSO, Sigma-Aldrich, St. Louis, MO, cat. D2650), except for the platinum complexes which were prepared in saline (Quality Biological, Gaithersburg, MD, cat. 114-055-101), at 800-fold the tested concentration and stored at -70 degrees C prior to their use. All drugs and investigational agents were tested over a range starting from a high concentration at or near the clinical Cmax and decreasing in half-log increments. If the clinical Cmax for an agent had not been determined, the highest concentration tested was 10 microM.
Cell Culture. All cells were maintained in an incubator at 37 degrees C and 5% CO2 with 95% humidity. The PDC lines were cultured according to standard operating procedures established by the NCI PDMR. Briefly, all PDCs were thawed and cultured in Matrigel-coated flasks prepared with a working solution of 1X Ham's F-12 nutrient mix, without supplementation (Invitrogen, Waltham, MA, cat. 11765054), 100 U/mL penicillin-streptomycin (Invitrogen, cat. 15140122), and 2.5% Matrigel (Corning Inc., Corning, NY, cat. 354248) for the first three passages. The 947758-054-R-J2-PDC line was cultured in 6B/Colon 1A media, which includes advanced DMEM/F-12 (Thermo Fisher Scientific, cat. 12634028), 10 mM HEPES (Thermo Fisher Scientific, cat. 15630080), 1X GlutaMAX supplement (Thermo Fisher Scientific, cat. 35050061), 0.1 mg/mL primocin (InvivoGen, cat. ant-pm-2), 10% defined fetal bovine serum, heat inactivated (HyClone Laboratories Inc., cat. SH30070.03HI), 1.25 mM N-Acetyl-L-cysteine (Sigma-Aldrich, cat. A9165), 10 mM nicotinamide (Sigma-Aldrich, cat. N0636), 1X B-27 supplement (Thermo Fisher Scientific, cat. 17504044), 1X N-2 supplement (Thermo Fisher Scientific, cat. 17502048), and 10 microM Y-27632 dihydrochloride (Tocris Bioscience, cat. 1254). The 876862-298-R-J1-PDC was cultured in 6E media, which includes all 6B/Colon 1A media components plus 50% L-WRN conditioned media (ATCC, cat. CRL-3276), 50 ng/mL recombinant human EGF recombinant protein (hEGF; Thermo Fisher Scientific, cat. PHG0311), 10 ng/mL recombinant human fibroblast growth factor 10 (hGFG-10; PeproTech, cat. 100-26), 1 ng/mL recombinant human fibroblast growth factor 2 (hFGF-2; PeproTech, cat. 100-18B), and 1 µM prostaglandin E2 (PGE2; Tocris, cat. 2296). The 227483-062-R1-J1-PDC line was cultured in Panc media, containing all 6E components except hFGF-2, with the addition of 500 nM SB-431542 (Selleckchem, cat. S1067) and 10 nM gastrin (Tocris, cat. 3006). […]
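For viability, T/C in this document: drug exposure lasted seven days before viability readout; 100% = DMSO vehicle control wells.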

| SMILES | IC50 (curve of compound) | viability, T/C (compound 0.0316 µM) | viability, T/C (compound 0.1 µM) | viability, T/C (compound 0.316 µM) | viability, T/C (compound 1 µM) | viability, T/C (compound 3.16 µM) | viability, T/C (compound 10 µM) | other results |
| --- | --- | --- | --- | --- | --- | --- | --- | --- |
| C=C(F)C(=O)N1CCN(c2nc(OCC3CCCN3C)nc3c2CCN(c2cccc4cccc(Cl)c24)C3)CC1CC#N (stereo not drawn) | 5.55 µM and 5.42 µM | 103% and 97.9% | 97.9% and 98.3% | 101% and 99% | 87.8% and 95.9% | 98% and 93.7% | 0.23% and 0.2% | – |
| C=CC(=O)N1CCN(c2nc(=O)n(-c3c(C)ccnc3C(C)C)c3nc(-c4c(O)cccc4F)c(F)cc23)C(C)C1 (stereo not drawn) | > 10 µM | 84.4% and 97.4% | 95.1% and 95.9% | 99.2% and 102% | 106% and 98.1% | 104% and 96.5% | 89.5% and 94.4% | – |
| CC(C)CC(NC(=O)C(Cc1ccccc1)NC(=O)c1cnccn1)B(O)O (stereo not drawn) | 0.00435 µM and 0.00255 µM | – | – | – | – | – | – | viability, T/C (compound 0.000949 µM): 93.5% and 99.9%; viability, T/C (compound 0.003 µM): 73.2% and 41.8%; viability, T/C (compound 0.00949 µM): 1.45% and 1.53%; viability, T/C (compound 0.03 µM): 0.27% and 1.43%; viability, T/C (compound 0.0949 µM): 0.2% and 0.17%; viability, T/C (compound 0.3 µM): 1.64% and 0.18% |
| CC(Nc1ccc2c(c1)OCCn1cc(N3C(=O)OCC3C(F)F)nc1-2)C(N)=O (stereo not drawn) | 4.86 µM and 6.82 µM | 106% and 92.8% | 99.8% and 111% | 89% and 83.4% | 82.8% and 76.1% | 54.4% and 56.5% | 38.2% and 46.5% | – |
| CC1(C)CCC(CN2CCN(c3ccc(C(=O)NS(=O)(=O)c4ccc(NCC5CCOCC5)c([N+](=O)[O-])c4)c(Oc4cnc5[nH]ccc5c4)c3)CC2)=C(c2ccc(Cl)cc2)C1 | > 10 µM | 102% and 96.3% | 94.1% and 86% | 99.4% and 93.7% | 88.7% and 93.4% | 84.9% and 93.4% | 62% and 110% | – |
| CC1COCCN1c1cc(C2(S(C)(=N)=O)CC2)nc(-c2ccnc3[nH]ccc23)n1 (stereo not drawn) | 2.93 µM and 2.84 µM | 103% and 105% | 96.5% and 93.5% | 108% and 97% | 87.4% and 95% | 47.8% and 45.4% | 23.8% and 18.8% | – |
| CCCS(=O)(=O)Nc1ccc(F)c(C(=O)c2c[nH]c3ncc(-c4ccc(Cl)cc4)cc23)c1F | 7.51 µM and 6.09 µM | 99.7% and 107% | 97% and 82.6% | 98.6% and 98.2% | 104% and 93.3% | 108% and 90% | 32.9% and 19.8% | – |
| CCN1CCN(Cc2ccc(Nc3ncc(F)c(-c4cc(F)c5nc(C)n(C(C)C)c5c4)n3)nc2)CC1 | > 1 µM | 102% | 101% and 93.4% | 122% and 121% | 124% and 117% | – | – | viability, T/C (compound 0.00316 µM): 104% and 106%; viability, T/C (compound 0.01 µM): 99.1% and 94.2% |
| CCc1c2c(nc3ccc(O)cc13)-c1cc3c(c(=O)n1C2)COC(=O)[C@]3(O)CC | < 0.00316 µM | 6.99% and 10.1% | 5.22% and 6.99% | 4.52% and 6.06% | 3.5% and 4.41% | – | – | viability, T/C (compound 0.00316 µM): 43.1% and 28.1%; viability, T/C (compound 0.01 µM): 17.6% and 10.2% |
| CN1CCN(c2cc(C(=O)Nc3cc4cc(-c5cnn(C)c5)ccc4cn3)ccn2)CC1 | – | 113% [middle of 12 runs] | 105% [middle of 12 runs] | – | 0.38% [middle of 11 runs] | 0.16% [middle of 7 runs] | 0.15% [middle of 7 runs] | IC50 (compound alone, run of 07/31/2023): 286 nM [middle of 11 runs] |
| CNC(=O)c1ccc(Nc2nc(OC3CCCC3)c3c(-c4ccc5nc(C)oc5c4)c[nH]c3n2)c(OC)c1 | – | 108% [middle of 12 runs] | 88.3% [middle of 12 runs] | 28% [middle of 12 runs] | 19.8% [middle of 12 runs] | 19% [middle of 12 runs] | 20% [middle of 12 runs] | IC50 (compound alone, run of 08/01/2023): 209 nM [middle of 10 runs] |
| COC1C=CCC(C)C(C)S(=O)(=O)NC(=O)c2ccc3c(c2)N(CC2CCC21)CC1(CCCc2cc(Cl)ccc21)CO3 (stereo not drawn) | 1.84 µM and 1.65 µM | 102% and 92.4% | 91% and 85% | 77% and 89.5% | 79% and 77.1% | 25.9% and 15.1% | 2.88% and 3.41% | – |
| Nc1ccccc1NC(=O)c1ccc(CNC(=O)OCc2cccnc2)cc1 | 1.95 µM and 1.46 µM | 115% and 88% | 92.5% and 91.6% | 88.5% and 77.7% | 72.7% and 64% | 33% and 24.8% | 4.51% and 3.32% | – |
| Nc1ccn(C2OC(CO)C(O)C2(F)F)c(=O)n1 (stereo not drawn) | < 0.0316 µM | 49.6% and 38.5% | 18.4% and 12.3% | 11.4% and 11% | 6.88% and 9.43% | 6.14% and 8.17% | 4.28% and 6.46% | – |
| O=C(c1cc(Cc2n[nH]c(=O)c3ccccc23)ccc1F)N1CCN(C(=O)C2CC2)CC1 | > 10 µM | 109% and 101% | 90.8% and 97.7% | 92% and 108% | 79.5% and 103% | 75.7% and 84.3% | 57.9% and 71.5% | – |
| O=c1[nH]cc(F)c(=O)[nH]1 | 1.31 µM and 0.632 µM | 101% and 97.3% | 92.7% and 84.2% | 80.1% and 69.3% | 57.8% and 36% | 29.1% and 31.9% | 19.3% and 26.1% | – |

Now from value to compound, other results behind:

| IC50 (curve of compound) | SMILES | viability, T/C (compound 0.0316 µM) | viability, T/C (compound 0.1 µM) | viability, T/C (compound 0.316 µM) | viability, T/C (compound 1 µM) | viability, T/C (compound 3.16 µM) | viability, T/C (compound 10 µM) | other results |
| --- | --- | --- | --- | --- | --- | --- | --- | --- |
| > 10 µM | C#Cc1c(F)ccc2cc(O)cc(-c3ncc4c(N5CC6CCC(C5)N6)nc(OCC56CCCN5CC(F)C6)nc4c3F)c12 (stereo not drawn) | 97.9% and 109% | 94.2% and 99.3% | 91.3% and 98% | 91% and 107% | 94.4% and 111% | 88.9% and 101% | – |
| > 0.3 µM | C=CC(=O)Nc1cc(Nc2nccc(-c3cn(C)c4ccccc34)n2)c(OC)cc1N(C)CCN(C)C | – | – | – | – | – | – | viability, T/C (compound 0.000949 µM): 99.8% and 108%; viability, T/C (compound 0.003 µM): 92.8% and 88.8%; viability, T/C (compound 0.00949 µM): 103% and 107%; viability, T/C (compound 0.03 µM): 110% and 92.8%; viability, T/C (compound 0.0949 µM): 104% and 111%; viability, T/C (compound 0.3 µM): 83.7% and 87.5% |
| > 10 µM | CC(CO)NC(=O)c1cc(-c2ccc(Cl)cc2)nn(-c2cnn(C)c2)c1=O (stereo not drawn) | 103% and 108% | 96.4% and 90.6% | 95.2% and 95.5% | 96.3% and 98.4% | 88.3% and 117% | 86.7% and 92.5% | – |
| 0.0783 µM and 0.0767 µM | COc1c(OCCCN2CCOCC2)ccc2c3n(c(=NC(=O)c4cnc(N)nc4)nc12)CCN3 | 74.8% and 77.7% | 46% and 41.9% | 16.8% and 13.3% | 7.93% and 6.55% | – | – | viability, T/C (compound 0.00316 µM): 115% and 94.4%; viability, T/C (compound 0.01 µM): 90.3% and 90.5% |
| > 0.1 µM | Cn1ncnc1[C@H]1c2n[nH]c(=O)c3cc(F)cc(c23)N[C@@H]1c1ccc(F)cc1 | 73.8% and 77.2% | 67.4% and 71.5% | – | – | – | – | viability, T/C (compound 0.000316 µM): 106% and 98.8%; viability, T/C (compound 0.001 µM): 84.9% and 101%; viability, T/C (compound 0.00316 µM): 99.2% and 97.4%; viability, T/C (compound 0.01 µM): 83.2% and 92.6% |
| 0.0593 µM and 0.0554 µM | NC(=O)C(=Cn1cnc(-c2cc(C(F)(F)F)cc(C(F)(F)F)c2)n1)c1cncnc1 | – | – | – | – | – | – | viability, T/C (compound 0.00949 µM): 102% and 105%; viability, T/C (compound 0.03 µM): 86.1% and 84.8%; viability, T/C (compound 0.0949 µM): 24.7% and 19.3%; viability, T/C (compound 0.3 µM): 9.87% and 6.77%; viability, T/C (compound 0.949 µM): 3.5% and 4.03%; viability, T/C (compound 3 µM): 1.5% and 1.39% |
